How the values were obtained:
[1] = Phase I clinical trials, intravenous, adverse events; type: in vivo; details: human phase I, 1.0 g, I.V., qd × 1d
Procedure: The clinical trials were conducted to test if the toxicities observed in animal models would correlate with the adverse effects in humans. Double-blinded, randomized controlled human phase I and phase II clinical trials were carried out to compare L-ornidazole with racemate in both intravenous (I.V.) and oral formulations. L-ornidazole caused remarkably less adverse events (related to nervous system) than the racemate in both I.V. and oral routes. Such adverse drug events may cause non-compliance in patients being treated, which could be dangerous for life-threatening infections.

[2] = tested on: thiopental-induced hypnosis; experiment: Effects on thiopental-induced hypnosis; details: mice, 30 min before sodium thiopental 40 mg/kg IP, Mean ± SD, n=10
Procedure: A total of 70 mice were divided into 7 groups with 10 mice in each group (half male and half female), and animals were fasted for 8 hours before study. Vehicle control and ornidazole enantiomers were injected intraperitoneal (IP), after 30 minutes, sodium thiopental was then given IP: at 40 mg/kg.
Levo-, dextro-ornidazole and racemate are studied and compared in 6 treatment groups at 2 different dose levels of 40 and 80 mg/kg. The dose volume is 0.2 mL/10 gram and infusion rate is 0.2 mL/10 seconds.

[3] = tested on: spontaneous activities of mice; experiment: Effects on spontaneous activities of mice; details: Mean ± SD, n=10
Procedure: Mice weighing 18-22 g, half male and half female, were placed in the laboratory 24 hours before the test to adapt to the environment. The room temperature was controlled at 24±2° C. Animals were fasted for 8 hours before testing, and then placed in a transparent cage. The number of spontaneous activities of mice was counted by an automatic device (model XZ-4 by Drug Research Institute of China Academy of Medical Sciences). Mice were pre-screened by counting their spontaneous activities for five minutes and unqualified mice were excluded. A total of 110 mice were selected and divided into 11 groups with 10 mice in each group.
Chlorpromazine (3 mg/kg) was used as the positive control. The dose volume was 0.2 mL/10 gram and infusion rate was 0.2 mL/10 seconds.

## Cc1ncc([N+](=O)[O-])n1CC(O)CCl (racemic) [Racemic ornidazole, 1-(3-Chloro-2-hydroxypropyl)-2-methyl-5-nitroimidazole]
[1]
  # of Patients Reporting Adverse Events/Total Patients: 5/10
[2]; 40 mg/kg IP
  Sleeping Time: 74.0 ± 51.3 min
  Time to Lose Righting Reflex: 2.1 ± 0.3 min
[2]; 80 mg/kg IP
  Sleeping Time: 106.6 ± 99.2 min
  Time to Lose Righting Reflex: 1.9 ± 0.4 min
[3]; 40 mg/kg i.v., 0.5 h post-dose
  Spontaneous Activities (per 5 min): 79 ± 26 per 5 min
[3]; 40 mg/kg i.v., 1 h post-dose
  Spontaneous Activities (per 5 min): 56 ± 37 per 5 min
[3]; 40 mg/kg i.v., 2 h post-dose
  Spontaneous Activities (per 5 min): 63 ± 23 per 5 min
[3]; 40 mg/kg i.v., 3 h post-dose
  Spontaneous Activities (per 5 min): 62 ± 24 per 5 min
[3]; 40 mg/kg i.v., 4 h post-dose
  Spontaneous Activities (per 5 min): 72 ± 35 per 5 min
[3]; 80 mg/kg i.v., 0.5 h post-dose
  Spontaneous Activities (per 5 min): 48 ± 35 per 5 min
[3]; 80 mg/kg i.v., 1 h post-dose
  Spontaneous Activities (per 5 min): 26 ± 19 per 5 min
[3]; 80 mg/kg i.v., 2 h post-dose
  Spontaneous Activities (per 5 min): 32 ± 21 per 5 min
[3]; 80 mg/kg i.v., 3 h post-dose
  Spontaneous Activities (per 5 min): 55 ± 27 per 5 min
[3]; 80 mg/kg i.v., 4 h post-dose
  Spontaneous Activities (per 5 min): 61 ± 20 per 5 min
[3]; 160 mg/kg i.v., 0.5 h post-dose
  Spontaneous Activities (per 5 min): 29 ± 17 per 5 min
[3]; 160 mg/kg i.v., 1 h post-dose
  Spontaneous Activities (per 5 min): 22 ± 14 per 5 min
[3]; 160 mg/kg i.v., 2 h post-dose
  Spontaneous Activities (per 5 min): 21 ± 12 per 5 min
[3]; 160 mg/kg i.v., 3 h post-dose
  Spontaneous Activities (per 5 min): 30 ± 13 per 5 min
[3]; 160 mg/kg i.v., 4 h post-dose
  Spontaneous Activities (per 5 min): 51 ± 23 per 5 min

Source: patent US20130202698A1 (NANJING SANHOME PHARMACEUTICAL CO., LTD., priority 2005, published 2013)
